A word on the IC50: it is the concentration that gives 50% inhibition. One may read the melting point as the temperature of the solid-liquid transition.

Read-outs that look alike come from different tables or passages of the source.

One data set has as its target T1, COX-I (Homo sapiens, UniProt P23219).
T1 construct: Fresh blood was collected by syringe without anticoagulants from volunteers with consent; endogenous in cells; host or cells: fresh human whole blood from volunteers, left to clot (TXB2 read-out)
The experiment in a line: Whole blood assay for COX-I (TXB2 production). It is filed as cell-based.

For the next data set, the target named is T2, COX-II (Homo sapiens, UniProt P35354).
T2 construct: lipopolysaccharide for 24 hr at 37° C. for induction of COX-II; endogenous in cells; host or cells: heparinized fresh human whole blood from volunteers, LPS-stimulated for 24 hr (PGE2 read-out)
T2 sequence (P35354 18-604): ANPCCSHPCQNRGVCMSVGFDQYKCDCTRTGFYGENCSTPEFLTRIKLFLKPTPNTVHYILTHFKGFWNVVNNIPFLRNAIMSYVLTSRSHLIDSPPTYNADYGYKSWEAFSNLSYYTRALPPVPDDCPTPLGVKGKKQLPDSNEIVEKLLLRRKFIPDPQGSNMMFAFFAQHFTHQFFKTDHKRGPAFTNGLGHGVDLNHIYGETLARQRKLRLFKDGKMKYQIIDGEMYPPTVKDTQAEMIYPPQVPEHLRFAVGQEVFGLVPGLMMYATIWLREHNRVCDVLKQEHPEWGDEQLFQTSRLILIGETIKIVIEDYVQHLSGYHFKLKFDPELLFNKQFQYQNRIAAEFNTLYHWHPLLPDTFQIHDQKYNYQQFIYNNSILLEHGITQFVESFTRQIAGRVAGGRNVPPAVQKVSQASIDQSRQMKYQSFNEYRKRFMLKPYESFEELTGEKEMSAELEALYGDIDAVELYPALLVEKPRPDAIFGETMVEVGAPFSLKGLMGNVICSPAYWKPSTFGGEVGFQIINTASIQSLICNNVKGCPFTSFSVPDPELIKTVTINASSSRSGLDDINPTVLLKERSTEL
Put plainly: Whole blood assay for COX-II (LPS-induced PGE2 production). It is filed as cell-based.

Data set [1] has as its system stomachs (gastric lesions) of rats. The experiment in a line: Gastric ulcerogenic activity in rats. It is filed as in vivo, Male Sprague-Dawley rats. The following applies: oral, 5 h before autopsy, rats fasted 24 h. The protocol: Male Sprague-Dawley rats were used after a 24 h fast. Drugs were orally administered to groups of 10 rats 5 h before autopsy. The stomachs were macroscopically inspected and scored as follows: 0, no evidence of gastric lesions; 1, spotty submucosal hemorrhage or appearance of erosion; 3, widespread adherence of blood and large areas of submucosal hemorrhage or one to four small ulcers; 4, more than four small ulcers or one large ulcer; 5, numerous large ulcers.

Data set [2] relates to Adjuvant Arthritis in Rats. Put plainly: Analgesic activity: effect on adjuvant arthritis in rats (Randall-Selitto). It is filed as in vivo, Lewis rats. As to conditions: ratio of threshold pressure of treated vs non-treated rats.
Data set [3] concerns Stretching responses in mice. The experiment in a line: Stretching test (acetic acid i.p.). The class given is in vivo, Male ddY mice. As to conditions: 10 mg/Kg orally, acetic acid i.p. 1 h after drug. The protocol: Male ddY mice were used after a 24 h fast. Drugs were orally administered to groups of 10 mice. Mice were injected intraperitoneally (i.p.) with 0.2 ml/10 g of 0.6% acetic acid 1 h after the drug administration and then placed singly in a plastic animal cage. Stretching responses, defined as constriction of the abdomen with stretching of the hind limbs, were counted for 10 min from 3 min after the i.p. injection of acetic acid.

Setting [4] is: 1 hr at 37° C., read-out: COX-I IC50.
[5] abbreviates: LPS 24 hr, read-out: COX-II IC50.

T1 sequence (P23219 24-599): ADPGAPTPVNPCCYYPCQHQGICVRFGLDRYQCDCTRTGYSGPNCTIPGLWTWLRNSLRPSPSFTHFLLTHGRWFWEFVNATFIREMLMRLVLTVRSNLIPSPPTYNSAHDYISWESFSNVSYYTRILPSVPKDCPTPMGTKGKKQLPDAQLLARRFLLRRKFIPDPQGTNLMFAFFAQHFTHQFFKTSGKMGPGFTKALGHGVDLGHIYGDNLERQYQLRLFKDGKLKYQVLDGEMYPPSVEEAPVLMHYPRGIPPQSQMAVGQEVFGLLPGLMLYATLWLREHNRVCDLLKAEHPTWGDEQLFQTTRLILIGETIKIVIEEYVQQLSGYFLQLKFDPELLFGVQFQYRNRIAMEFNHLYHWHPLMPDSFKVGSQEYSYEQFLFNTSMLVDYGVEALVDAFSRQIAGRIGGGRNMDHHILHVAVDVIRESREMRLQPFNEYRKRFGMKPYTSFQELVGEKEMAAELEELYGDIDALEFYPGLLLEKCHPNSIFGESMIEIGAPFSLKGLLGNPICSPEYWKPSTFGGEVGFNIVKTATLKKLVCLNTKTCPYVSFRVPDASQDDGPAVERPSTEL
Description for COX-II: Fresh blood was collected in heparinized tubes by syringe from volunteers with consent. The subjects had no apparent inflammatory conditions and had not taken any medication for at least 7 days prior to blood collection. 500 μl aliquots of human whole blood were incubated with either 2 μl dimethyl sulfoxide vehicle or 2 μl of a test compound at final concentrations for 15 min at 37° C. This was followed by incubation of the blood with 10 μl of 5 mg/ml lipopolysaccharide for 24 hr at 37° C. for induction of COX-II. Appropriate PBS treatments (no LPS) were used as blanks. At the end of the incubation, the blood was centrifuged at 6000×g for 5 min at 4° C. to obtain plasma. A 100 μl aliquot of plasma was mixed with 400 μl methanol for protein precipitation. The supernatant was obtained by centrifuging at 6000×g for 5 min at 4° C. and was assayed for prostagrandin E2 (PGE2) using a radioimmunoassay kit after conversion of PGE2 to its methyl oximate derivative according to the manufacturer's procedure. For a test compound, the results were expressed as percent inhibition of PGE2 production relative to control incubations containing dimethyl sulfoxide vehicle. The data were analyzed by that a test compound at the indicated concentrations was changed log value and was applied simple linear regression. IC50 value was calculated by least squares method.

Regarding `COc1ccc(-c2cc(C#N)c(Cl)nc2-c2ccc(OC)cc2)cc1` [Example 1-(3), 2-chloro-5-(4-methoxyphenyl)-6-(4-methoxyphenyl) pyridine-3-carbonitrile], the figures for the IC50 on COX-I (setting [4]) and on COX-II (setting [5]) were less than 0.1 µM and greater than 1 µM, respectively.

In turn, `COc1ccc(-c2cc(C#N)cnc2-c2ccc(OC)cc2)cc1` [Example 4, 5-(4-methoxyphenyl)-6-(4-methoxyphenyl)-pyridine-3-carbonitrile] returned a melting point of 107 to 108 °C. Besides, in data set [1], the “Gastric ulcerogenic activity (Non-toxic dose)” value was greater than 100 mg/kg. For the same compound, the “Analgesic activity in adjuvant arthritis -3.2 mg/Kg-” value in data set [2] (3.2 mg/Kg, 2 hr after administration) is 1.57. The “The coefficient of analgesic” value in data set [2] (Dose 3.2 mg/kg, pain threshold 2 hr after administration, ratio of 1.5 = effective dose) is listed as greater than 1.5. Moreover, at COX-I (setting [4]), the IC50 is less than 0.1 µM. For the same compound, the IC50 on COX-I (Table 1, read-out: Whole blood assay (IC50: μM) COX-I) amounted to 0.017 µM. For the same compound, the IC50 on COX-II (setting [5]) is greater than 1 µM. Also, the IC50 at COX-II (Table 1, read-out: Whole blood assay (IC50: μM) COX-II) amounted to 1.9 µM. The “Inhibiting activity in stretching test” value in data set [3] was 48%.

In the case of `COc1ccc(-c2cc(C#N)c(OC)nc2-c2ccc(OC)cc2)cc1` [Example 6, 2-methoxy-5-(4-methoxyphenyl)-6-(4-methoxyphenyl)-pyridine-3-carbonitrile], the IC50 is less than 0.1 µM on COX-I (setting [4]) and greater than 1 µM at COX-II (setting [5]).

For `CC(C(=O)O)c1cccc(C(=O)c2ccccc2)c1` (centres unmarked) [G, Ketoprofen], the “Gastric ulcerogenic activity (Non-toxic dose)” value in data set [1] was found to be 3.2 mg/kg.

As to `COc1ccc(-c2noc(CC(=O)O)c2-c2ccc(OC)cc2)cc1` [H, Mofezolac], the “Gastric ulcerogenic activity (Non-toxic dose)” value in data set [1] amounted to 10 mg/kg.

In the case of `COc1ccc2c(c1)c(CC(=O)O)c(C)n2C(=O)c1ccc(Cl)cc1` [I, Indomethacin], in data set [1], the “Gastric ulcerogenic activity (Non-toxic dose)” value is 1 mg/kg.

Regarding `O=C(O)Cc1ccccc1Nc1c(Cl)cccc1Cl` [J, Diclofenac], the “Gastric ulcerogenic activity (Non-toxic dose)” value in data set [1] was determined as 3.2 mg/kg.

Values taken from patent US20060128757A1, “Pyridine derivatives useful as cyclooxygenase inhibitor” (Astellas Pharma Inc., priority 2001, published 2006).
